Results as given in patent US9604932B2 (priority 2013, dated 2017).

Legend:
[1] = system: acute retinal ischemia-reperfusion injury; test: Porcine model of acute retinal ischemia-reperfusion injury; assay type: in vivo; conditions: protocol only; 10, 30, 80 mg/kg/day IV BID
Method: In this study, a porcine model of acute retinal ischemia-reperfusion injury (n=6 per group) is induced by equilibration with an elevated saline reservoir to create a static IOP of 90 mmHg for 90 min. Task #1: Microvascular responsiveness: A dose-response of parenteral R-107 (0, 10, 30, 80 mg/kg/day IV BID) is initiated 10 minutes before reperfusion. 1 hour after reperfusion, retinal microvessels are harvested and cannulated for ex vivo analysis of vascular responsiveness to endothelium dependent and independent vasodilators. Task #2: Retinal function and morphology: R-107 is given 10 minutes before reperfusion (at a dose determined by Task #1) and its efficacy judged by electroretinogram (1, 2, 7 days post-reperfusion) and retinal histology, ultrastructure, and drug concentration (Day 7).

[2] = Incubation of R-107 in mouse plasma, relative concentrations by HPLC; assay type: in vitro ADME; conditions: R-107 4 mM in mouse plasma, 37° C.
Method: In an in vitro study, 2,2,5,5-tetramethyl-3-(nitrooxymethyl)pyrrolidin-1-yl acetate (R-107) was incubated in mouse or rat plasma at 37° C. at a concentration of 4 mM, and the relative concentrations of this compound as well as of its corresponding hydroxylamine, (1-hydroxy-2,2,5,5-tetramethylpyrrolidin-3-yl) methyl nitrate (R-105), and 3-nitratomethyl-2,2,5,5-tetramethylpyrrolidinyloxy (R-100), were measured by HPLC.

[3] = system: contrast-induced nephropathy (CIN); test: Rat model of contrast-induced nephropathy; assay type: in vivo, Sprague-Dawley rats; conditions: protocol only; 10, 20, 40 mg/kg/day BID IV
Method: In order to test the efficacy of R-107 in contrast-induced nephropathy (CIN), a single-blinded study of CIN is carried out in Sprague-Dawley rats (n=10 per group) subjected to dehydration, prostaglandin synthetase inhibition, and an IV challenge of contrast media (CM). A sham injury group is compared to treatment of CM-challenged healthy rats with R-107 (10, 20, 40 mg/kg/day in 5% dextrose, BID IV), N-acetylcysteine (NAC, 100 mg/kg/day in 5% dextrose, BID), or vehicle control (hydroxypropyl cyclodextrin, HPCD) initiated 10 min before CM administration and continued for 48 hours. Rats are evaluated at 48 hours for renal function (blood urea nitrogen to creatinine ratio, BUN:creatinine) and parameters reflecting renal injury, including protein release into the blood (NGAL; kidney injury molecule-1, KIM-1), pro-inflammatory transcription factor expression (cytoplasmic IkBa degradation, nuclear p65 translocation), histologic damage (H&E), mitochondrial swelling (electron microscopy), and nuclear damage and DNA repair (PARP activation and nitrosative stress as noted by poly(ADP-ribose) and 3-nitrotyrosine (3-NT) tissue immunoreactivity). […]

[4] = system: mice exposed to a lethal dose of E. coli lipopolysaccharide (LPS); test: Murine model of sepsis (lethal dose of E. coli LPS); assay type: in vivo, Balb/c mice; conditions: protocol only; 0, 20, 40, or 80 mg/kg/day BID IP
Method: In this study, Balb/c mice exposed to a lethal dose of E. coli lipopolysaccharide (LPS; 10 mg/kg IP) are treated with R-107 (0, 20, 40, or 80 mg/kg/day, BID IP), with the initial dose given 1 hour after LPS injection, and the mortality for the animal treated with LPS only (the control group) vs. that for the animals treated with the various doses of R-107 is compared.
In a satellite study, tissues and sera are collected at 16 hours, i.e., 15 hours after the first administration and 3 hours after the second administration of R-107, for analysis, and the level of creatinine, aspartate transminase (AST), alanine transaminase (ALT), bilirubin, amylase, lipase, and alkaline phosphatase (ALP), associated with kidney, pancreas, and liver functioning are measured.

[5] = system: limb ischemia reperfusion injury (LIRI); test: Minipig model of limb ischemia-reperfusion injury; assay type: in vivo, minipigs; conditions: protocol only; 10, 30, 80 mg/kg/day TID
Method: In this study, the efficacy of R-107 in a limb ischemia reperfusion injury (LIRI) is tested. In a large animal model of acute LIRI (n=6 minipigs per group) induced by an endovascular balloon occlusion of the femoral artery for 6 hours, parenteral R-107 (0, 10, 30, 80 mg/kg/day TID) is initiated 10 minutes before reperfusion via direct arterial infusion, followed by an IV infusion thereafter. At 7, 14, and 21 days after reperfusion, limb perfusion (by Doppler flow) is correlated with nerve conduction velocity (NCV, per electromyography, EMG), and muscle strength (by foot pressure on a walking surface) with simultaneous plasma concentrations of R-107.

SMILES: CC(=O)ON1C(C)(C)CC(CO[N+](=O)[O-])C1(C)C (stereo not shown) [R-107, 2,2,5,5-tetramethyl-3-(nitrooxymethyl)pyrrolidin-1-yl acetate]
- Efficacy in porcine model of acute retinal ischemia-reperfusion injury [1]: Effective
- Relative concentration of R-107 ([2]; 0.1 hrs): 326
- Relative concentration of R-107 ([2]; 1.5 hrs): 284
- Relative concentration of R-107 ([2]; 20 hrs): 0
- Efficacy in rat model of contrast-induced nephropathy [3]: Effective
- Efficacy in murine model of sepsis [4]: Effective
- Efficacy in minipig model of limb ischemia-reperfusion injury [5]: Effective
